# pEC50: −log10 of the molar value.
# Molecular target: T1, human GPR43 (Homo sapiens, UniProt O15552)
# T1 construct: expressed in transfected cells
# T1 sequence (O15552 1-330): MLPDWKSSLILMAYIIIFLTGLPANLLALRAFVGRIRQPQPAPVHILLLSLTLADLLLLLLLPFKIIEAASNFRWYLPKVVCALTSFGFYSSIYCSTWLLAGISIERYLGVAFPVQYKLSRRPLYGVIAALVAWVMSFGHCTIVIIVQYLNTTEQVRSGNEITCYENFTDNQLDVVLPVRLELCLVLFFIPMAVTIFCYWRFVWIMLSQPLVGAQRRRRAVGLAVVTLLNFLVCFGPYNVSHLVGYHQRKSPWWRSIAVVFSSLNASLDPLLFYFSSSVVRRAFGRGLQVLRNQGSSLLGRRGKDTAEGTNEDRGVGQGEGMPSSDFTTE
# Assay: Ca-Flux Functional Assay: Determination of Agonist/Positive Allosteric Modulator (PAM) Activity
# Format: cell-based
# Settings: CHO-K1 Gα16 cells stably expressing human GPR43; compound added in the presence of EC20 sodium acetate; intracellular Ca2+ by FLIPR; agonist/PAM activity not distinguished
# Protocol: Ca-Flux Functional Assay: Determination of Agonist/Positive Allosteric Modulator (PAM) Activity
# GPR43 agonist/PAM activity was determined by measuring changes in intracellular calcium levels using a Ca^2+ sensitive fluorescent dye. The changes in fluorescent signal were monitored by FLIPR (manufactured by Molecular Devices). GPR43 mediated increases in intracellular Ca^2+ concentration were readily detected upon activation with sodium acetate. Prior to the assay (24 hours), CHO-K1 Gα16 cells stably expressing human GPR43 were-seeded in cell culture medium in black, clear-bottom 384-well plates (Corning Inc) and grown overnight at 37° C., 5% CO2. On the day of the assay, cell culture media was removed and cells were loaded with Calcium 5 Dye (Molecular Devices) diluted in HBSS containing 25 mM HEPES, 2.5 mM Probenecid, 0.1% BSA for 1 hour at 37° C., 5% CO2. 10 point half log concentration response curves of sodium acetate from 10 mM were conducted prior to the testing of compounds to calculate the sodium acetate concentration that produces 20% of the maximal response (EC20). Test compounds (at to point half log concentration response curves from 10 μM) were added in the presence of sodium acetate to achieve a final concentration that produces approximately 20% maximal response as calculated from the previous experiment. The changes in fluorescent signal were monitored by FLIPR upon addition of the compound/EC20 sodium acetate mix. The EC50 values were determined from ten point concentration response curves. Curves were generated using the average of two wells for each data point.
# The above assay detects both GPR43 receptor agonists and positive allosteric modulators of the GPR43 receptor, without distinguishing between the two. Activity in either regard is useful in the treatment of conditions associated with GPR43 receptor activity.
row,Structure (SMILES),pEC50
1,"COc1nc(C)nc2c(S(=O)(=O)c3ccccc3F)c(N)n(C3CCCCC3)c12 [Example 38, 5-cyclohexyl-7-(2-fluorobenzenesulfonyl)-4-methoxy-2-methyl-5H-pyrrolo[3,2-d]pyrimidin-6-amine]",6.77
2,"Nc1c(S(=O)(=O)NCC2COC2)c2nccnc2n1C1CCCCC1 [Example 80, 6-amino-5-cyclohexyl-N-(oxetan-3-ylmethyl)-5H-pyrrolo[2,3-b]pyrazine-7-sulfonamide]",5.22
3,"Nc1c(S(=O)(=O)c2ccccc2)c2nccnc2n1CCc1ccccc1 [Example 46, 5-phenethyl-7-(phenylsulfonyl)-5H-pyrrolo[2,3-b]pyrazin-6-amine]",5.28
4,"Nc1c(S(=O)(=O)N2CCC(Cc3ccccc3)CC2)c2nccnc2n1C1CCCCC1 [Example 81, 7-(4-benzylpiperidine-1-sulfonyl)-5-cyclohexyl-5H-pyrrolo[2,3-b]pyrazin-6-amine]",5.90
5,"CN(C1CCCCC1)S(=O)(=O)c1c(N)n(C2CCCCC2)c2nccnc12 [Example 71, 6-amino-N,5-dicyclohexyl-N-methyl-5H-pyrrolo[2,3-b]pyrazine-7-sulfonamide]",5.08
6,"CC1CCCN1S(=O)(=O)c1c(N)n(C2CCCCC2)c2nccnc12 (centres unmarked) [Example 68, 5-cyclohexyl-7-((2-methylpyrrolidin-1-yl)sulfonyl)-5H-pyrrolo[2,3-b]pyrazin-6-amine]",5.83
7,"CC1CCN(S(=O)(=O)c2c(N)n(C3CCCCC3)c3nccnc23)CC1 [Example 62, 5-cyclohexyl-7-((4-methylpiperidin-1-yl)sulfonyl)-5H-pyrrolo[2,3-b]pyrazin-6-amine]",6.52
8,"Nc1c(S(=O)(=O)c2ccccc2)c2ncncc2n1C1CCCCC1 [Example 19, 7-(benzenesulfonyl)-5-cyclohexyl-5H-pyrrolo[3,2-d]pyrimidin-6-amine]",5.75
9,"Nc1c(S(=O)(=O)N2CCC(c3ccccc3)C2)c2nccnc2n1C1CCCCC1 (centres unmarked) [Example 86, 5-cyclohexyl-7-(3-phenylpyrrolidine-1-sulfonyl)-5H-pyrrolo[2,3-b]pyrazin-6-amine]",5.77

# Further compounds by rising pEC50, results first:
row,pEC50,Structure (SMILES)
1,5.08,"COC1CCN(S(=O)(=O)c2c(N)n(C3CCCCC3)c3nccnc23)C1 (centres unmarked) [Example 91, 5-cyclohexyl-7-(3-methoxypyrrolidine-1-sulfonyl)-5H-pyrrolo[2,3-b]pyrazin-6-amine]"
2,5.24,"Nc1c(S(=O)(=O)N2CCC(O)CC2)c2nccnc2n1C1CCCCC1 [Example 93, 1-{6-amino-5-cyclohexyl-5H-pyrrolo[2,3-b]pyrazine-7-sulfonyl}piperidin-4-ol]"
3,5.48,"Nc1c(S(=O)(=O)NCCc2ccccc2)c2nccnc2n1C1CCCCC1 [Example 84, 6-amino-5-cyclohexyl-N-(2-phenylethyl)-5H-pyrrolo[2,3-b]pyrazine-7-sulfonamide]"
4,5.97,"Nc1c(S(=O)(=O)c2ccc(OC(F)(F)F)cc2)c2nccnc2n1C1CCCCC1 [Example 116, 5-cyclohexyl-7-{[4-(trifluoromethoxy)-benzene]sulfonyl}-5H-pyrrolo[2,3-b]pyrazin-6-amine]"
5,6.19,"Nc1c(S(=O)(=O)N2CCN(CC(F)(F)F)CC2)c2nccnc2n1C1CCCCC1 [Example 105, 5-cyclohexyl-7-[4-(2,2,2-trifluoroethyl)-piperazine-1-sulfonyl]-5H-pyrrolo[2,3-b]pyrazin-6-amine]"
6,6.33,"Nc1c(S(=O)(=O)NCCc2nccs2)c2nccnc2n1C1CCCCC1 [Example 103, 6-amino-5-cyclohexyl-N-[2-(1,3-thiazol-2-yl)ethyl]-5H-pyrrolo[2,3-b]pyrazine-7-sulfonamide]"
7,6.59,"CC1CCCN(S(=O)(=O)c2c(N)n(C3CCCCC3)c3nccnc23)C1 (centres unmarked) [Example 102, 5-cyclohexyl-7-(3-methylpiperidine-1-sulfonyl)-5H-pyrrolo[2,3-b]pyrazin-6-amine]"
8,6.69,"COc1ccc(S(=O)(=O)c2c(N)n(C3CCCCC3)c3nccnc23)cc1Cl [Example 114, 7-[(3-chloro-4-methoxybenzene)-sulfonyl]-5-cyclohexyl-5H-pyrrolo[2,3-b]pyrazin-6-amine]"

# Source: patent US20170369492A1 (Takeda Pharmaceutical Company Limited, priority 2014, published 2017)
